Drawing on PubChem BioAssay (NCI), this text covers GI50 and TGI for 18 compounds.

Structures are written as SMILES.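 The compound was tested at five concentrations on cells cultured in 96-well plates, with a 48-hour exposure period. GI50: concentration for 50% inhibition of growth. TGI is the concentration that stops growth completely.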

For the first test, the system named is MDA-MB-231 breast. Briefly: NCI tumour cell line growth inhibition, 48 h.
With `C=C(C)C(OC)C(O)CC1(C)CC(O)CC(C)(C2CCC3OC(C4(C)CCC(Br)C(C)(C)O4)CCC3(C)O2)O1` (centres undefined), the GI50 is 20.3 µM and the TGI amounted to 43.8 µM.
In the case of `NC(N)=NS(=O)(=O)c1ccc(Nc2c3ccccc3nc3c(C(=O)NCCO)cccc23)cc1`, the GI50 is 24.6 µM.
Regarding `COc1cccc(-c2cc(-c3cccc(NS(C)(=O)=O)c3)nc(N)c2C#N)c1O`, the GI50 is 0.815 µM and the TGI was > 100 µM.
The corresponding values for `COc1ccc2c(c1)sc1nc(-c3ccccc3)c(-c3cccc4ccccc34)n12` are 1.32 µM and > 100 µM.
On the same counts, the results for `OCCN(CCO)c1ncnc2c1ncn2Cc1ccc(CCl)cc1` are 18 µM and 35.5 µM.
On the same counts, the results for `Cc1ccc(NC(=O)Nc2ccc(-c3cccnc3)cc2N2CCC(CO)CC2)cc1` are 2.42 µM and > 100 µM.
`Cc1cc(-c2nc(C(=O)Nc3cc4oc(N5CCOCC5)nc4nc3N3CC[C@@H](O)C3)co2)ccn1`: the GI50 was 45.6 µM and the TGI was > 100 µM.
The corresponding values for `COc1cc(/C=N\NC(=O)CN2CCN(c3cc4c(cc3F)c(=O)c(C(=O)N/N=C/c3cc(OC)c(OC)c(OC)c3)cn4C3CC3)CC2)cc(OC)c1OC` are 0.25 µM and 0.781 µM.
For the compound `C=CC(=O)Nc1cc(Nc2ncc(C(=O)OC(C)C)c(-c3cn(C)c4ccccc34)n2)c(OC)cc1N(C)CCN(C)C`, the GI50 was 2.66 µM and the TGI worked out at 8.26 µM.
The corresponding values for `COc1cnc2c(c1)C(=O)c1c-2n(CCCN2CCOCC2)c(=O)c2cc(F)ccc12` are 1.6 µM and > 100 µM.
The corresponding values for `Cc1nc2sccn2c1-c1csc(Nc2ccccc2Cl)n1` are 3.33 µM and 27 µM.
The corresponding values for `CN(C)c1ccc(/C=C\C2=[N+](C)c3ccccc3C2(C)C)cc1` are 2.12 µM and 18.8 µM.
In the case of `Nc1nc(-n2c(-c3ccccc3)nc3c(Br)cc(Br)cc3c2=O)nnc1-c1cccc(Cl)c1Cl`, the GI50 was 4.22 µM and the TGI was found to be 18.3 µM.
On the same counts, the results for `Cn1cc(C2=C(c3c4n(c5ccccc35)CCCCC4)C(=O)NC2=O)c2ccccc21` are 6.42 µM and > 25 µM.
On the same counts, the results for `NS(=O)(=O)OC[C@@H]1C[C@@H](n2ccc3c(NC4CCc5ccccc54)ncnc32)C[C@@H]1O` (some centres undefined) are 10.1 µM and > 100 µM.
On the same counts, the results for `Nc1ccccc1C#C/C=C\C#Cc1ccccc1OC(F)(F)F` are 5.34 µM and 24.7 µM.
Consider `CN1CCCCC1CCN1c2ccccc2Sc2ccc(Cl)cc21` (centres undefined), for which the GI50 was 2.09 µM and the TGI worked out at 6.32 µM.
With `FC(F)(F)c1cccc(Nc2nc(-c3ccccc3)nc3ncccc23)c1`, the GI50 was 4.88 µM and the TGI came out at 41.2 µM.

Another test relates to BT-549 breast. In words: NCI tumour cell line growth inhibition, 48 h.
For `C=C(C)C(OC)C(O)CC1(C)CC(O)CC(C)(C2CCC3OC(C4(C)CCC(Br)C(C)(C)O4)CCC3(C)O2)O1` (centres undefined), the GI50 was 19.9 µM and the TGI is 38.4 µM.
Take `NC(N)=NS(=O)(=O)c1ccc(Nc2c3ccccc3nc3c(C(=O)NCCO)cccc23)cc1`: the GI50 is 33.8 µM.
Turning to `COc1cccc(-c2cc(-c3cccc(NS(C)(=O)=O)c3)nc(N)c2C#N)c1O`, the GI50 is 0.716 µM and the TGI is > 47.4 µM.
The corresponding values for `COc1ccc2c(c1)sc1nc(-c3ccccc3)c(-c3cccc4ccccc34)n12` are 1.15 µM and > 93.2 µM.
Regarding `OCCN(CCO)c1ncnc2c1ncn2Cc1ccc(CCl)cc1`, the GI50 was 11.7 µM and the TGI turned out to be 24.6 µM.
For `Cc1ccc(NC(=O)Nc2ccc(-c3cccnc3)cc2N2CCC(CO)CC2)cc1`, the GI50 was 1.96 µM and the TGI came out at 9.2 µM.
`Cc1cc(-c2nc(C(=O)Nc3cc4oc(N5CCOCC5)nc4nc3N3CC[C@@H](O)C3)co2)ccn1`: the GI50 is 33 µM and the TGI was > 100 µM.
On to `COc1cc(/C=N\NC(=O)CN2CCN(c3cc4c(cc3F)c(=O)c(C(=O)N/N=C/c3cc(OC)c(OC)c(OC)c3)cn4C3CC3)CC2)cc(OC)c1OC`, for which the GI50 is 0.199 µM and the TGI is 0.461 µM.
On the same counts, the results for `C=CC(=O)Nc1cc(Nc2ncc(C(=O)OC(C)C)c(-c3cn(C)c4ccccc34)n2)c(OC)cc1N(C)CCN(C)C` are 7.41 µM and 21.4 µM.
Take `COc1cnc2c(c1)C(=O)c1c-2n(CCCN2CCOCC2)c(=O)c2cc(F)ccc12`: the GI50 is 0.523 µM and the TGI is > 100 µM.
`Cc1nc2sccn2c1-c1csc(Nc2ccccc2Cl)n1`: the GI50 is 3.6 µM and the TGI came to 23.4 µM.
`CN(C)c1ccc(/C=C\C2=[N+](C)c3ccccc3C2(C)C)cc1`: the GI50 is 0.423 µM and the TGI stood at 11.2 µM.
On the same counts, the results for `Nc1nc(-n2c(-c3ccccc3)nc3c(Br)cc(Br)cc3c2=O)nnc1-c1cccc(Cl)c1Cl` are 19.1 µM and > 100 µM.
As to `Cn1cc(C2=C(c3c4n(c5ccccc35)CCCCC4)C(=O)NC2=O)c2ccccc21`, the GI50 was > 11.7 µM and the TGI is > 25 µM.
The corresponding values for `NS(=O)(=O)OC[C@@H]1C[C@@H](n2ccc3c(NC4CCc5ccccc54)ncnc32)C[C@@H]1O` (some centres undefined) are 22.8 µM and > 95.7 µM.
For `Nc1ccccc1C#C/C=C\C#Cc1ccccc1OC(F)(F)F`, the GI50 is 5.78 µM and the TGI is 22.5 µM.
The corresponding values for `CN1CCCCC1CCN1c2ccccc2Sc2ccc(Cl)cc21` (centres undefined) are 10.4 µM and 23.3 µM.
For `FC(F)(F)c1cccc(Nc2nc(-c3ccccc3)nc3ncccc23)c1`, the GI50 is 5.52 µM and the TGI was 30.6 µM.

The next test deals with NCI-H460 lung. In words: NCI tumour cell line growth inhibition, 48 h.
As to `C=C(C)C(OC)C(O)CC1(C)CC(O)CC(C)(C2CCC3OC(C4(C)CCC(Br)C(C)(C)O4)CCC3(C)O2)O1` (centres undefined), the GI50 was 17.7 µM and the TGI was found to be 39.3 µM.
Take `NC(N)=NS(=O)(=O)c1ccc(Nc2c3ccccc3nc3c(C(=O)NCCO)cccc23)cc1`: the GI50 is 9.16 µM.
`COc1cccc(-c2cc(-c3cccc(NS(C)(=O)=O)c3)nc(N)c2C#N)c1O`: the GI50 is 0.316 µM and the TGI is > 39.5 µM.
On the same counts, the results for `COc1ccc2c(c1)sc1nc(-c3ccccc3)c(-c3cccc4ccccc34)n12` are 0.416 µM and > 35.2 µM.
The corresponding values for `OCCN(CCO)c1ncnc2c1ncn2Cc1ccc(CCl)cc1` are 14.2 µM and 30.8 µM.
On the same counts, the results for `Cc1ccc(NC(=O)Nc2ccc(-c3cccnc3)cc2N2CCC(CO)CC2)cc1` are 3.19 µM and > 100 µM.
For `Cc1cc(-c2nc(C(=O)Nc3cc4oc(N5CCOCC5)nc4nc3N3CC[C@@H](O)C3)co2)ccn1`, the GI50 is 44 µM and the TGI was > 100 µM.
As to `COc1cc(/C=N\NC(=O)CN2CCN(c3cc4c(cc3F)c(=O)c(C(=O)N/N=C/c3cc(OC)c(OC)c(OC)c3)cn4C3CC3)CC2)cc(OC)c1OC`, the GI50 was 0.251 µM and the TGI worked out at 0.636 µM.
On the same counts, the results for `C=CC(=O)Nc1cc(Nc2ncc(C(=O)OC(C)C)c(-c3cn(C)c4ccccc34)n2)c(OC)cc1N(C)CCN(C)C` are 6.57 µM and 14.8 µM.
Regarding `COc1cnc2c(c1)C(=O)c1c-2n(CCCN2CCOCC2)c(=O)c2cc(F)ccc12`, the GI50 is 0.0573 µM and the TGI worked out at 0.487 µM.
With `Cc1nc2sccn2c1-c1csc(Nc2ccccc2Cl)n1`, the GI50 is 3.19 µM and the TGI was found to be 15.8 µM.
The corresponding values for `CN(C)c1ccc(/C=C\C2=[N+](C)c3ccccc3C2(C)C)cc1` are 0.466 µM and 7.16 µM.
The corresponding values for `Nc1nc(-n2c(-c3ccccc3)nc3c(Br)cc(Br)cc3c2=O)nnc1-c1cccc(Cl)c1Cl` are 6.92 µM and > 100 µM.
Regarding `Cn1cc(C2=C(c3c4n(c5ccccc35)CCCCC4)C(=O)NC2=O)c2ccccc21`, the GI50 is 6.51 µM and the TGI is > 25 µM.
On the same counts, the results for `NS(=O)(=O)OC[C@@H]1C[C@@H](n2ccc3c(NC4CCc5ccccc54)ncnc32)C[C@@H]1O` (some centres undefined) are 0.341 µM and 23.9 µM.
The corresponding values for `Nc1ccccc1C#C/C=C\C#Cc1ccccc1OC(F)(F)F` are 3.78 µM and 17.3 µM.
On the same counts, the results for `CN1CCCCC1CCN1c2ccccc2Sc2ccc(Cl)cc21` (centres undefined) are 2.77 µM and 8.44 µM.
As for `FC(F)(F)c1cccc(Nc2nc(-c3ccccc3)nc3ncccc23)c1`, the GI50 is 3.45 µM and the TGI was found to be 12.6 µM.

The next test has as its system HOP-62 NSCLC. In words: NCI tumour cell line growth inhibition, 48 h.
Consider `C=C(C)C(OC)C(O)CC1(C)CC(O)CC(C)(C2CCC3OC(C4(C)CCC(Br)C(C)(C)O4)CCC3(C)O2)O1` (centres undefined), for which the GI50 was 17.4 µM and the TGI turned out to be 32.6 µM.
Consider `NC(N)=NS(=O)(=O)c1ccc(Nc2c3ccccc3nc3c(C(=O)NCCO)cccc23)cc1`, for which the GI50 is 20 µM.
As to `COc1cccc(-c2cc(-c3cccc(NS(C)(=O)=O)c3)nc(N)c2C#N)c1O`, the GI50 is 0.135 µM and the TGI is > 100 µM.
For `COc1ccc2c(c1)sc1nc(-c3ccccc3)c(-c3cccc4ccccc34)n12`, the GI50 was 0.538 µM.
On to `OCCN(CCO)c1ncnc2c1ncn2Cc1ccc(CCl)cc1`, for which the GI50 is 23.8 µM and the TGI came to 41.1 µM.
On to `Cc1ccc(NC(=O)Nc2ccc(-c3cccnc3)cc2N2CCC(CO)CC2)cc1`, for which the GI50 is 2.41 µM and the TGI is > 100 µM.
On to `Cc1cc(-c2nc(C(=O)Nc3cc4oc(N5CCOCC5)nc4nc3N3CC[C@@H](O)C3)co2)ccn1`, for which the GI50 is 30.6 µM and the TGI is > 100 µM.
As to `COc1cc(/C=N\NC(=O)CN2CCN(c3cc4c(cc3F)c(=O)c(C(=O)N/N=C/c3cc(OC)c(OC)c(OC)c3)cn4C3CC3)CC2)cc(OC)c1OC`, the GI50 is 0.374 µM and the TGI turned out to be 21 µM.
On the same counts, the results for `C=CC(=O)Nc1cc(Nc2ncc(C(=O)OC(C)C)c(-c3cn(C)c4ccccc34)n2)c(OC)cc1N(C)CCN(C)C` are 7.13 µM and 22.8 µM.
On the same counts, the results for `COc1cnc2c(c1)C(=O)c1c-2n(CCCN2CCOCC2)c(=O)c2cc(F)ccc12` are 0.187 µM and 0.991 µM.
On to `Cc1nc2sccn2c1-c1csc(Nc2ccccc2Cl)n1`, for which the GI50 is 4.75 µM and the TGI came to 70.5 µM.
On the same counts, the results for `CN(C)c1ccc(/C=C\C2=[N+](C)c3ccccc3C2(C)C)cc1` are 0.842 µM and 21.6 µM.
`Nc1nc(-n2c(-c3ccccc3)nc3c(Br)cc(Br)cc3c2=O)nnc1-c1cccc(Cl)c1Cl`: the GI50 is 2.84 µM and the TGI is 9.8 µM.
Consider `Cn1cc(C2=C(c3c4n(c5ccccc35)CCCCC4)C(=O)NC2=O)c2ccccc21`, for which the GI50 is > 12.5 µM and the TGI is > 25 µM.
The corresponding values for `NS(=O)(=O)OC[C@@H]1C[C@@H](n2ccc3c(NC4CCc5ccccc54)ncnc32)C[C@@H]1O` (some centres undefined) are 3.23 µM and > 46.9 µM.
The corresponding values for `Nc1ccccc1C#C/C=C\C#Cc1ccccc1OC(F)(F)F` are 6.1 µM and 20.6 µM.
On the same counts, the results for `CN1CCCCC1CCN1c2ccccc2Sc2ccc(Cl)cc21` (centres undefined) are 10.1 µM and 24.2 µM.
In the case of `FC(F)(F)c1cccc(Nc2nc(-c3ccccc3)nc3ncccc23)c1`, the GI50 was 7.18 µM and the TGI turned out to be 22.2 µM.
